Assay results from ChEMBL document CHEMBL4373654, “Discovery of (aza)indole derivatives as novel respiratory syncytial virus fusion inhibitors” (Medchemcomm, 2019).
Values after ≈ are worked out from the molar mass of the structure shown. Active and inactive are the calls of the source. No cut-off for these calls is given here.

Columns and labels:
[1] = system: Respiratory syncytial virus; experiment: Antiviral activity against Respiratory syncytial virus Long infected in HEp-2 cells assessed as reduction in virus induced cytopathic effect measured after 6 days by MTT assay; format: functional, organism-based; settings: human respiratory syncytial virus, HEp-2, 144 h
[2] = Cytotoxicity against human Hep2 cells assessed as reduction in cell viability after 6 days by MTT assay; format: cell-based; settings: HEp-2 cells
[3] = Therapeutic index, ratio of CC50 for cytotoxicity against human Hep2 cells to EC50 for antiviral activity against Respiratory syncytial virus Long infected in HEp-2 cells; format: toxicity, cell-based; settings: read-out: Ratio CC50/EC50
[4] = AUC in ICR mouse at 10 mg/kg, po administered as single dose; format: ADME, organism-based; settings: in vivo
[5] = Clearance in ICR mouse at 2 mg/kg, iv or 10 mg/kg, po administered as single dose; format: ADME, organism-based; settings: in vivo
[6] = Volume of distribution at steady state in ICR mouse at 2 mg/kg, iv administered as single dose; format: ADME, organism-based; settings: in vivo, read-out: Vdss
[7] = Half life in ICR mouse at 10 mg/kg, po administered as single dose; format: ADME, organism-based; settings: in vivo
[8] = Oral bioavailability in ICR mouse at 10 mg/kg administered as single dose; format: ADME, organism-based; settings: in vivo
[9] = Solubility of compound by LYSA assay; format: physicochemical
[10] = AUC in ICR mouse at 25 mg/kg, po administered as single dose; format: ADME, organism-based; settings: in vivo
[11] = Clearance in ICR mouse at 5 mg/kg, iv or 25 mg/kg, po administered as single dose; format: ADME, organism-based; settings: in vivo
[12] = Volume of distribution at steady state in ICR mouse at 5 mg/kg, iv administered as single dose; format: ADME, organism-based; settings: in vivo, read-out: Vdss
[13] = Half life in ICR mouse at 25 mg/kg, po administered as single dose; format: ADME, organism-based; settings: in vivo
[14] = system: Respiratory syncytial virus; experiment: Inhibition of Respiratory syncytial virus Long F protein expressed in Flp-In T-REx 293 cells assessed as cell-cell fusion at 1 nM after 3 days by microscopic analysis; format: cell-based
[15] = system: Respiratory syncytial virus; experiment: Inhibition of Respiratory syncytial virus Long F protein expressed in Flp-In T-REx 293 cells assessed as syncytia formation at 1 nM after 3 days by microscopic analysis; format: cell-based
[16] = system: Respiratory syncytial virus; experiment: Inhibition of Respiratory syncytial virus Long F protein expressed in Flp-In T-REx 293 cells assessed as reduction in syncytia formation at 10 nM after 3 days by microscopic analysis relative to control; format: cell-based
[17] = Oral bioavailability in ICR mouse at 25 mg/kg administered as single dose; format: ADME, organism-based; settings: in vivo

SMILES | EC50 [1] [nM] | CC50 at 144 h [2] [nM] | selectivity ratio [3] | also measured
CS(=N)(=O)CCn1c(CN2C(=O)C3(CC3)c3ccncc32)cc2cc(Cl)ccc21 (configuration not stated) | 7 | 78300 | 11200 | –
CS(=O)(=O)CCCCn1c(CN2C(=O)C3(CC3)c3ccncc32)cc2cc(Cl)ccc21 | 6 | > 100000 | > 16700 | –
Cc1cccc2c1cc(CN1C(=O)C3(CC3)c3ccncc31)n2CCS(C)(=O)=O | 9 | 61600 | 6840 | –
CS(=O)(=O)CCCn1c(CN2C(=O)C3(CC3)c3ccncc32)cc2cc(Cl)ccc21 | 3 | 38600 | 12900 | –
CS(=O)(=O)CCn1c(CN2C(=O)C3(CC3)c3ccncc32)cc2c(F)cccc21 | 190 | > 100000 | > 526 | –
COc1cccc2c1cc(CN1C(=O)C3(CC3)c3ccncc31)n2CCS(C)(=O)=O | 74 | > 100000 | > 1350 | –
CS(=O)(=O)CCn1c(CN2C(=O)C3(CC3)c3ccncc32)cc2cccc(Cl)c21 | 160 | 86900 | 543 | –
CS(=O)(=O)CCn1c(CN2C(=O)C3(CC3)c3ccncc32)cc2c(Br)cccc21 | 14 | 49900 | 3560 | –
CS(=O)(=O)CCn1c(CN2C(=O)C3(CC3)c3ccncc32)cc2cc(Cl)ncc21 | 330 | 98900 | 300 | –
CS(=O)(=O)CCn1c(CN2C(=O)C3(CC3)c3ccncc32)cc2ccccc21 | 220 | 77500 | 352 | –
CS(=O)(=O)CCc1c(Cn2c(=O)n(C3CC3)c3ccncc32)nc2cc(Cl)ccn12 | – | – | – | AUC [4]: 315 µg/L/h; clearance [5]: 93.3 mL/min/kg; Vd [6]: 1.29 L/kg; half-life [7]: 1.73 h; bioavailability [8]: 16.9%
CS(=O)(=O)CCn1c(CN2C(=O)C3(CC3)c3ccncc32)cc2nc(Cl)ccc21 | 63 | 74500 | 1180 | –
CS(=O)(=O)CCn1c(CN2C(=O)C3(CC3)c3ccncc32)cc2cc(Cl)cnc21 | 26 | 41700 | 1600 | solubility [9]: 5 µg/mL (≈ 11.6 µM); AUC [10]: 10200 µg/L/h; clearance [11]: 23.7 mL/min/kg; Vd [12]: 0.845 L/kg; half-life [13]: 0.7 h
CS(=O)(=O)CCn1c(CN2C(=O)C3(CC3)c3ccncc32)cc2c(Cl)cccc21 | 1670 | > 100000 | > 60 | –
O=C1N(Cc2cc3cc(Cl)ccc3n2[C@@H]2CCS(=O)(=O)C2)c2cnccc2C12CC2 | 2 | 37100 | 18600 | solubility [9]: 2 µg/mL (≈ 4.53 µM); inhibition [14]: inactive; inhibition [15]: inactive; inhibition [16]: 100%; AUC [10]: 3360 µg/L/h; clearance [11]: 30.2 mL/min/kg; Vd [12]: 2.35 L/kg; half-life [13]: 3.04 h; bioavailability [17]: 24.5%
CS(=O)(=O)CCn1c(CN2C(=O)C3(CC3)c3ccncc32)cc2ccc(Cl)cc21 | 4830 | 59700 | 12 | –
C[S+]([O-])CCCn1c(CN2C(=O)C3(CC3)c3ccncc32)cc2cc(Cl)ccc21 (configuration not stated) | 9 | 92100 | 10200 | –
CCc1cccc2c1cc(CN1C(=O)C3(CC3)c3ccncc31)n2CCS(C)(=O)=O | 220 | 86800 | 395 | –
O=C1N(Cc2cc3cc(Cl)ccc3n2[C@H]2CCS(=O)(=O)C2)c2cnccc2C12CC2 | 9 | 42500 | 4720 | –
CS(=O)(=O)CCn1c(CN2C(=O)C3(CC3)c3ccncc32)cc2c(C#N)cccc21 | 940 | > 100000 | > 106 | –
CS(=O)(=O)CCn1c(CN2C(=O)C3(CC3)c3ccncc32)cc2cc(Cl)ccc21 | 18 | 67400 | 3740 | solubility [9]: 17 µg/mL (≈ 39.5 µM); AUC [10]: 1550 µg/L/h; clearance [11]: 54.2 mL/min/kg; Vd [12]: 1.38 L/kg; half-life [13]: 0.64 h
CCS(=O)(=O)CCCn1c(CN2C(=O)C3(CC3)c3ccncc32)cc2cc(Cl)ccc21 | 3 | 51200 | 17100 | –
CS(=O)(=O)CCn1c(CN2C(=O)C3(CC3)c3cnccc32)cc2cc(Cl)ccc21 | 200 | 96800 | 484 | –
CCS(=O)(=O)CCn1c(CN2C(=O)C3(CC3)c3ccncc32)cc2cc(Cl)ccc21 | 8 | > 100000 | > 12500 | –
CS(=O)(=O)CCn1c(CN2C(=O)C3(CC3)c3cccnc32)cc2cc(Cl)ccc21 | 170 | > 100000 | > 588 | –
CS(=O)(=O)CCn1c(CN2C(=O)C3(CC3)c3ccncc32)cc2c(C(F)(F)F)cccc21 | 560 | > 100000 | > 179 | –
CS(=N)(=O)CCCn1c(CN2C(=O)C3(CC3)c3ccncc32)cc2cc(Cl)ccc21 (configuration not stated) | 6 | 68300 | 11400 | –
